Assay results from US4356188A, “1-Naphthyl-acetic acid derivatives and their therapeutic applications” (Institut de Recherche Scientifique "I.R.S.", priority 1978, dated 1982).
Where two headings read alike, the source gives them in different places.

What was measured:
[1] = Anti-pyretic activity: brewer's yeast-induced fever; type: in vivo; conditions: Rattus norvegicus; rats, oral, 17 hours after brewer's yeast; mean of 5 hourly determinations; dosages in method 25-50-100 mg/kg; read-out: Anti-pyretic activity ID 50
Experimental: After determination of the rectal temperature, rats are sub-cutaneously administered 1 ml/100 g of a 20% brewer's yeast suspension, and are put on a water diet. 17 hours later, their temperature is again determined. The mean increase of the rectal temperature, under such experimental conditions, is about 1.5° C. The various test materials are then orally administered to groups of 10 rats (average weight: 140 g) at dosages of 25-50 and 100 mg/kg. A fourth group (control) is administered only olive oil (1 ml/100 g). The temperature drop subsequent to the treatment is followed hourly, for a period of time of 5 hours. The mean percent inhibition is calculated by effecting the mean of the 5 determinations, with respect to the value 1.5° C.

[2] = Antalgic activity: phenylbenzoquinone-induced writhing (Sigmund, modified); type: in vivo, male Ch. River mice; conditions: Mus musculus, po; mice, p.o., 30 minutes before phenylbenzoquinone; spasms counted fifth to tenth minute; dosages in method 25-50-100 mg/kg; read-out: Antalgic activity ID 50
Experimental: The method used is that according to Sigmund and co-workers (Soc. Exp. Biol. Med. 1957, 95, 729) as modified by Hendershot & Forsaith (J. Pharm. Exp. Therap. 1959, 125, 237-240) and Lines & Gouret (J. Pharm. (Paris) 1972, 3, 513-515). Intraperitoneal administration of 0.25 ml/20 g, in mice, of a 0.02% phenylbenzoquinone solution in 5% alcohol, produces the development of a pain syndrome which is characterized by writhing movements and by hollow flanks. Treatment of groups of 10 male Ch. River mice (average weight: 20 g) at dosages of 25-50 and 100 mg/kg p.o. (a control group being administered only neutral olive oil; 0.5 ml/20 g) is effected 30 minutes prior to phenylbenzoquinone administration. The ID 50 is calculated as previously indicated, from the percent inhibition of the spasms counted from the fifth to the tenth minute that follow the injection of the algogenic agent.

[3] = Anti-inflammatory activity: carrageenin-induced plantar edema test (Winter); type: in vivo; conditions: Rattus norvegicus; rats, oral, 1 hour before 1% carrageenin; mean of 7 hourly determinations; dosages in method 25-50-100 mg/kg; read-out: Anti-inflammatory activity ID 50
Experimental: The test selected is the test of the carrageenin-induced plantar edema, according to Winter (Proc. Soc. Exp. Biol., 1961, 111, 544). […] A fourth group (control) is administered only neutral olive oil (1 ml/100 g). One hour after the treatment, 0.1 ml of a 1% carrageenin suspension is injected in the left plantar aponevrosis. The intensity of the edema is evaluated by immersing the inflamed paw in a mercury plethystometer. The percent inhibition of the edema is calculated from the mean value of the 7 determinations made hourly after carrageenin administration. The dosage which inhibits inflammation by 50% (ID 50) is determined in the same manner as previously described.

[4] = Ulcerogenic activity (Robert & Nezamis, modified by Lwoff); set-up: species or system rats of Ch. River strain; conditions: rat, in vivo
Experimental: The technique used is that according to Robert & Nezamis (Proc. Soc. Exp. Biol. Med., 1958,99,443-447) as modified by Lwoff (J. Pharmacol. (Paris) 1971, 2, 81-83).
Groups of 20 rats of Ch. River strain (average weight: 130 g) kept on a water diet for the 24 hours prior to the test, are orally administered the test materials, at dosages of 50-100-200-400 and 800 mg/kg. A reference group is administered only neutral olive oil, at a dosage of 1 ml/100 g.
Six hours later, the animals are sacrificed by bulbar trauma, after which their stomachs are cut out, opened along the great curvature and rated according to a scale from 0 to 3, according to the extent of the ulceration.
The ulceration index for each dosage is calculated according to the following formula: [formula]
With this scoring method, a 100% ulceration index is equal to 300. The 50% ulcerogenic dosage (UD 50) is that which corresponds to an index of 150.

in vivo = conditions: rat, po, read-out: Acute toxicity LD 50
Experimental: Groups of 5 male CH. River rats, having an average weight of 125 g, kept on a water diet for 18 hours prior to the test, are orally administered the test materials, dissolved in neutral olive oil (1 ml/100 g), at dosages of 250-500-1000 and 2000 mg/kg.
The death rate is recorded 7 days after the administration: the lethal dose 50 (LD 50) is determined according to the method by Litchfield & Wilcoxon.

CC(C)Cc1cccc2c(CC(=O)O)cccc12 [Derivative 1, [5-isobutyl-1-naphthyl]acetic acid]
ED50 [1]: 0.7 mg/kg
ED50 [2]: 24 mg/kg
ED50 [3]: 15 mg/kg
TD50 at 6 h ([4]; po): > 800 mg/kg
LD50 at 168 h (in vivo): 600 mg/kg

CC(C)Cc1cccc2c(C(C)C(=O)O)cccc12 (centres unmarked) [Derivative 2, 2-[5-isobutyl-1-naphthyl]propionic acid]
ED50 [1]: < 1 mg/kg
ED50 [2]: 4 mg/kg
ED50 [3]: 5 mg/kg
LD50 at 168 h (in vivo): 130 mg/kg

CC(C)Cc1ccc(C(C)C(=O)O)cc1 (centres unmarked) [ibuprofen, reference compound]
ED50 [1]: 12 mg/kg
ED50 [2]: 9 mg/kg
ED50 [3]: 38 mg/kg
TD50 at 6 h ([4]; po): 220 mg/kg

COc1ccc2cc([C@H](C)C(=O)O)ccc2c1 [naproxen, reference compound]
ED50 [1]: 4.1 mg/kg
ED50 [2]: 10.6 mg/kg
ED50 [3]: 3 mg/kg
TD50 at 6 h ([4]; rats, oral, 6 hours, dose giving ulceration index 150, dosages in method 50-800 mg/kg, read-out: Ulcerogenic activity UD 50): 43 mg/kg
